Reference: patent publication EP1071411B1, “TOPICAL IMMUNOSTIMULATION TO INDUCE LANGERHANS CELL MIGRATION” (TORREY PINES INSTITUTE FOR MOLECULAR STUDIES, priority 1998, dated 1999)

Experiments:
EG7-OVA cells = test: Tumor-specific immunity after topical vaccination, subcutaneous tumor challenge, tumor size; assay type: in vivo, C57BL/6; conditions: for inhibiting tumor cell growth: Figure 4
Protocol: (§1) The C57BL/6 thymoma tumor cell line, EL4, was transfected with the complete gene for chicken ovalbumin (OVA). The resulting transfected cell line, EG7-OVA, expresses chicken ovalbumin. […] Based on the positive results using FITC, the inventors followed a similar protocol in an attempt to induce immunity to the EG7-OVA tumor by topical administration of the well-characterized, synthetic […] tumor-associated peptide.
C57BU6 mice were treated as follows: 1) shaving alone; 2) topical administration of acetone and dibutylphthalate; 3) […] (240 :g/ml) in DMSO diluted in PBS, followed in 5 hours by acetone and dibutylphthalate; and 4) […] (240 :g/ml) in acetone and dibutylphthalate. All mice were subsequently injected subcutaneously with 5 × 10^5 EG7-OVA cells (5-times the minimal tumorogenic dose). Tumor-specific immunity was monitored by measuring tumor size.
(§2) The mucous membranes lack the tough barrier posed by the stratum corneum. […] The EL4 parent tumor cell line, lacking chicken ovalbumin, was used as a […]; no immunity against the EL4 tumor cells was seen. Thus, the inventors' hypothesis regarding penetration of the stratum corneum was confirmed; the […] peptide was not reaching the Langerhans cells underlying the stratum corneum.
While intravaginal topical administration of tumor antigen provided an effective means of routing antigen to the Langerhans cells for subsequent induction of tumor-specific immunity, mucous membrane application sites, like the vagina, are not well-suited for convenient use and monitoring by general practitioners likely to be involved in administering the topical vaccinations of the present invention. Thus, to enhance the effectiveness of cutaneous topical administration, […] was dissolved in DMSO and applied to the skin without dilution. Dibutylphthalate in acetone was applied to the same site 5 hr later. All mice were subsequently injected subcutaneously with 5 x 10^5 EG7-OVA cells. The results shown in Figure 6 indicate that the peptide in DMSO was able to traverse the stratum corneum, effectively gaining access to the Langerhans cells. Tumor growth was suppressed after 6 to 9 days and even the established tumors were completely eliminated by 16 days post-inoculation. Thus, the tumor specific peptide, […], in concentrated DMSO, penetrated the stratum corneum, was incorporated into the MHC class I molecule K^b on epidermal Langerhans cells, and in the presence of the migration inducer, dibutylphthalate, was effectively presented to CD8+ CTLs in the lymph nodes.

EL4 tumor cells = test: Specificity control of intravaginal topical vaccination, parent tumor challenge; assay type: in vivo, C57BL/6; conditions: intravaginal topical application, SIINFEKL in acetone and dibutylphthalate; Figure 5
Excerpt: as §1, §2

Langerhans cells = test: FITC Langerhans cell migration screening, draining inguinal lymph node, flow cytometry; assay type: in vivo, C57BL/6 mice; conditions: for Total MHC class II^th cells, distance from the positive control, dibutylphthalate (DBP): 5 mg/ml FITC in acetone and migration inducer, 100 µl, after 2 days, Figure 7; for FITC+ Langerhans cell number / total dendritic cell migration into the lymph node / nonspecific immigration: agent added to topical FITC in acetone, 2 days after treatment, Figure 1
Excerpt: Fluorescein isothiocyanate (FITC) has been used extensively by the inventor and others, to characterize Langerhans cell migration. FITC is a small (mw 389) non-peptide, largely lipophilic molecule, capable of crossing the stratum corneum. Immunogenicity of FITC is due to the reactivity of its isothiocyanate group (-N-C-S) with free amino groups, permitting it to be covalently bound to proteins and/or peptides. C57BL/6 mice received the following treatments: 1) none; 2) abdomen shaving only; 3) topical administration of FITC in acetone; 4) topical administration of FITC in acetone and olive oil; 5) topical administration of FITC in acetone and DMSO diluted in phosphate buffered saline (PBS); and 6) topical administration of FITC in acetone and dibutylphthalate. The draining inguinal lymph nodes were then examined for immigrant Langerhans cells by immunofluorescent flow cytometry each day thereafter. Migratory Langerhans cells were identified by the presence of FITC and expression of high MHC class II molecules or by a Langerhans cell-specific monoclonal antibody (NLDC-145). Other dendritic cell residents of the lymph nodes could also be differentiated using a dendritic cell-specific monoclonal antibody, 33D1. The uptake of FITC and the Langerhans cell response to migratory signals were observable in the draining lymph node as early as six hours after topical administration. However, 48-72 hours was required for maximal rate of immigration into the lymph node. Figure 1 illustrates the effect of the various treatment regimens on total and FITC + lymphoid dendritic cells 2 days after treatment. […] Thus, dibutylphthalate was a very potent migration inducer.
High numbers of FITC+ Langerhans cells were present in the lymph node by 12 hours and the peak frequency of immigrant FITC+ Langerhans cells occurred about 2 to 3 days following topical administration. […] The unlabeled dendritic cells were most likely Langerhans cells that had lost the FITC label. Five days after skin painting, the lymph node cell population had increased by approximately 7.2 fold over baseline levels.
Compounds which are useful as inducers of Langerhans cell migration may be screened using the standard FITC methods described for the data presented in Figures 1-3. C57BL6 mice are shaved on their abdomens and painted with 100 µl test solution, containing 5 mg/ml FITC in a 50150 (v/v) mixture of acetone and the migration inducer (e.g. dibutylphthalate). After 2 days, the draining inguinal lymph node is removed and the total number of dendritic cells (both FITC+ and FITC-) is determined by flow cytometry and MHC class II immunoassay.

[1] = iontophoresis; cited from earlier work

CC[C@H](C)[C@H](NC(=O)[C@@H](NC(=O)[C@@H](N)CO)[C@@H](C)CC)C(=O)N[C@@H](CC(N)=O)C(=O)N[C@@H](Cc1ccccc1)C(=O)N[C@@H](CCC(=O)O)C(=O)N[C@@H](CCCCN)C(=O)N[C@@H](CC(C)C)C(=O)O
inhibiting tumor cell growth (EG7-OVA cells; cutaneous, SIINFEKL (240 :g/ml) in DMSO diluted in PBS, followed in 5 hours by acetone and dibutylphthalate): none of the treatment protocols were effective
inhibiting tumor cell growth (EG7-OVA cells; cutaneous, SIINFEKL (240 :g/ml) in acetone and dibutylphthalate): none of the treatment protocols were effective
time by which established tumors were completely eliminated (EG7-OVA cells; cutaneous, SIINFEKL in undiluted DMSO, dibutylphthalate in acetone at same site 5 hr later, Figure 6): ≤ 16 days post-inoculation
protection against the tumor (EG7-OVA cells; intravaginal topical application, SIINFEKL in acetone and dibutylphthalate, Figure 5): complete protection
immunity against the EL4 tumor cells (EL4 tumor cells): no immunity

CC12CCC(CC1=O)C2(C)C (stereo not shown) [C, camphor]
Total MHC class II^th cells, distance from the positive control, dibutylphthalate (DBP) (Langerhans cells): ≤ 1 standard deviation

CCCCOC(=O)[C@@H](O)[C@H](O)C(=O)OCCCC [DBT, dibutyl-D-tartrate]
Total MHC class II^th cells, distance from the positive control, dibutylphthalate (DBP) (Langerhans cells): ≤ 1 standard deviation

C[S+](C)[O-] [DMSO, dimethylsulfoxide]
FITC+ Langerhans cell number (Langerhans cells): no enhancement
total dendritic cell migration into the lymph node / nonspecific immigration (Langerhans cells): modest stimulatory effect

CCCCCCCCCOC(=O)c1ccccc1C(=O)OCCCCCCCCC [DNP, dinonylphthalate]
Total MHC class II^th cells, distance from the positive control, dibutylphthalate (DBP) (Langerhans cells): ≤ 1 standard deviation

CCCCOC(=O)c1ccccc1C(=O)OCCCC [dibutylphthalate]
FITC+ Langerhans cell number (Langerhans cells): striking effect
total dendritic cell migration into the lymph node / nonspecific immigration (Langerhans cells): striking effect
inhibiting tumor cell growth (EG7-OVA cells; cutaneous topical acetone and dibutylphthalate without peptide, 5 × 10^5 EG7-OVA cells s.c.): none of the treatment protocols were effective

NC(=O)CC[C@@H]1NC(=O)[C@H](Cc2ccccc2)NC(=O)[C@H](Cc2ccc(O)cc2)NC(=O)[C@@H](N)CSSC[C@@H](C(=O)N2CCC[C@H]2C(=O)N[C@@H](CCCN=C(N)N)C(=O)NCC(N)=O)NC(=O)[C@H](CC(N)=O)NC1=O [vassopressin]
fraction that crossed the stratum corneum [1]: about 0.4 % per hour

Fluorescein isothiocyanate [FITC]
time required for maximal rate of immigration into the lymph node (Langerhans cells; after topical administration): 48 to 72 h

dibenzylbutylphthalate [DBBP]
Total MHC class II^th cells, distance from the positive control, dibutylphthalate (DBP) (Langerhans cells): ≤ 1 standard deviation
